T1: Luciola cruciata luciferase, wild type (Nipponoluciola cruciata, UniProt P13129)
T1 sequence (P13129 1-548): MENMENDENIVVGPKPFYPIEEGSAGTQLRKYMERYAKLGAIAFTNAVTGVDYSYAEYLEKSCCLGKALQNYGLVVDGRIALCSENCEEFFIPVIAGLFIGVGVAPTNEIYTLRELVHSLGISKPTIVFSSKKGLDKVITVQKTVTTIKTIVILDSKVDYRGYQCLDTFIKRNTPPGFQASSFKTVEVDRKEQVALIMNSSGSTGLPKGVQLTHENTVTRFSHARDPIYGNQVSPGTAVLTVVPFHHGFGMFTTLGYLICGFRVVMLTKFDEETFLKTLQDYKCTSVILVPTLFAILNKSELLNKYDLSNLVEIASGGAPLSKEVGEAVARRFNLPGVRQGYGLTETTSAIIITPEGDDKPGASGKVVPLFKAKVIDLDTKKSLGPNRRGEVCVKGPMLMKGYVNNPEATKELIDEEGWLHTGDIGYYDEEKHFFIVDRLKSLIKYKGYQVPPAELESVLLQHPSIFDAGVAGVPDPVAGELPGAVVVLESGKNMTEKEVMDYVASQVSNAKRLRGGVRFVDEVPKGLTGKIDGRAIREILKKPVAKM


Legend:
[1] = target: Photinus pyralis luciferase, wild type (Photinus pyralis, UniProt P08659); experiment: Km for substrate ATP, peak light emission (HEPES pH 7.5); assay type: biochemical; conditions: read-out: Km for the substrate ATP; ATP 0 to 2 mM, 50 mM HEPES (pH 7.5), 0.2 mM luciferin, 10 mM MgSO4
[2] = target: T1, Luciola cruciata luciferase, wild type; experiment: as above; assay type: biochemical; conditions: read-out: Km for the substrate ATP; ATP 0 to 2 mM, 50 mM HEPES (pH 7.5), 0.2 mM luciferin, 10 mM MgSO4
Experimental: Then, this suspension was frozen in an ethanol/dry ice bath and then allowed to stand at a temperature of 25° C. until it was completely thawed. Further, it was centrifuged at 12,000 r.p.m. for 5 minutes whereby 20 ml crude enzyme was obtained as the supernatant. The crude enzyme solution thus obtained was purified according to the method described in Japanese Patent Laid-Open Publication 141592/1989, and the purified enzyme was designated GA1 luciferase. The Km value of this purified preparation for the substrate ATP was determined.

[3] = tested on: GA1 luciferase (fusion of Luciola cruciata luciferase N-terminal portion and Photinus pyralis luciferase C-terminal portion, SEQ ID NO:5); experiment: as above; assay type: biochemical; conditions: read-out: Km for the substrate ATP; ATP 0 to 2 mM, 50 mM HEPES (pH 7.5), 0.2 mM luciferin, 10 mM MgSO4
Experimental: The Km value of this purified preparation for the substrate ATP was determined. The peak of the emission of light generated by use of the enzyme with the concentration of ATP varying from 0 to 2 mM in a solution containing 50 mM HEPES (pH 7.5), 0.2 mM luciferin and 10 mM MgSO4 was measured in Luminometer ML3000 (Dynatech) and the result is shown in the table 1 below.

[4] = tested on: GGA1 luciferase (fusion of thermostable Luciola cruciata luciferase N-terminal, Thr217Ile, and Photinus pyralis luciferase C-terminal, SEQ ID NO:7); assay type: biochemical; conditions: read-out: Km for the substrate ATP; purified GGA1 enzyme, Table 2
Experimental: E. coli JM109 (pGGA1) was inoculated on an LB-amp agar plate [1% (W/V) Bacto-trypton, 0.5% (W/V) yeast extract, 0.5% (W/V) NaCl, (50 a g/ml) ampicillin and 1.4% (W/V) agar] and cultured at 37° C. The colonies appearing 16 hours thereafter were cultured at 37° C. for 18 hours under shaking in 10 ml of an LB-amp medium [1% (W/V) Bacto-trypton, 0.5% (W/V) yeast extract, 0.5% (W/V) NaCl and (50 μ g/ml) ampicillin]. This culture, 10 ml, was inoculated into 2 L of the above LB-amp medium and cultured at 30 ° C. for 6 hours under shaking and then centrifuged at 8000 r.p.m. for 10 minutes to give 30 g wet microbial pellet. The recovered microorganism was suspended in 20 ml buffer consisting of 0.1 M KH2 PO4 (pH 7.8), 2 mM EDTA, 1 mM dithiothreitol and 0.2 mg/ml protamine sulfate, and 2 ml of 10 mg/ml lysozyme solution was further added thereto and the mixture was allowed to stand on ice for 15 minutes. Then, this suspension was frozen in an ethanol/dry ice bath and then allowed to stand at a temperature of 25° C. until it was completely thawed. Further, it was centrifuged at 12,000 r.p.m. for 5 minutes whereby 20 ml crude enzyme was obtained as the supernatant. […]
The Km value of this purified GGA1 enzyme for the substrate ATP was determined (Table 2).

[5] = target: Photinus pyralis luciferase (Photinus pyralis, UniProt P08659); experiment: Km for substrate ATP, peak light emission (Tricine pH 7.8); assay type: biochemical; conditions: read-out: Km (affinity for ATP); ATP 0 to 2 mM, 50 mM Tricine buffer (pH 7.8), 0.2 mM luciferin, 10 mM MgSO4
Experimental: (§1) Further, its crude enzyme solution was prepared using the method described in Example 1 and the enzyme was purified in a method described in Japanese Patent Application Laid-Open Publication No. 141592/89. The purified enzyme was designated HHA1 luciferase.

[6] = tested on: HHA1 luciferase (fusion of Luciola lateralis luciferase N-terminal, from pHLf7-217Leu, and Photinus pyralis luciferase C-terminal, SEQ ID NO:10); experiment: as above; assay type: biochemical; conditions: read-out: Km (affinity for ATP); ATP 0 to 2 mM, 50 mM Tricine buffer (pH 7.8), 0.2 mM luciferin, 10 mM MgSO4
Experimental: 50 ng of the above EcoRV--EcoRV fragment from pT3/T7-LUC and 50 ng of the above EcoRV-NaeI fragment from pHLf7-217Leu were incubated at 15° C. for 16 hours in 20 μ l DNA ligase buffer in the presence of 300 U of T4 DNA ligase. The reaction mixture was used to transform E. coli JM 109 by the Hana-han method [DNA Cloning, 1, 109-135 (1985)], and ampicillin-resistant colonies were selected. A crude enzyme was prepared from the selected colonies in the method described in Example 1, and a plasmid was removed by the alkali-SDS method from those having luminescence activity, and the structure of the plasmid was confirmed. This plasmid was subjected to reaction with a dye primer tuck sequencing kit (Applied Biosystems) and analyzed by electrophoresis with an ABI 373A DNA sequencer (Applied Biosystems) to determine its nucleotide sequence (SEQ ID NO:9). The amino acid sequence of a polypeptide estimated to be translated from said nucleotide sequence is shown in SEQ ID NO:10. The plasmid thus obtained was designated pHHA1.
as §1

[7] = tested on: GGA1 luciferase variant GGA1 T219I (219-position Thr to Ile); experiment: Catalytic efficiency (Vmax/Km) toward ATP, integrated light emission; assay type: biochemical, Luciola cruciata / Photinus pyralis; conditions: ATP 0 to 1.0×10^-3 mM, 50 mM Tricine buffer (pH 7.8), 2.0 mM luciferin, 10 mM MgSO4; light integrated 5 to 15 seconds
Experimental: (§2) The resulting transformant was inoculated on an LB-amp plate [1.0% (W/V) Bacto-trypton, 0.5% (W/V) yeast extract, 0.5% (W/V) NaCl, 1.5% (W/V) agar and 50 μ g/ml ampicillin] and cultured at 37° C. for 12 hours. The resulting colonies were transferred onto a nitrocellulose filter, and said filter was immersed in 0.1 M sodium citrate buffer (pH 5.0) containing 0.5 mM luciferin [Wood & DeLuca, Anal. Biochem., 161, 501-507 (1987)]. The emission of light from said colonies was monitored, and 3 strains with raised emission could be obtained. These strains were designated E. coli JM 109 (pGGA2-1), E. coli JM 109 (pGGA1-4) and E. coli JM 109 (pGGA2-4), respectively. The E. coli JM 109 (pGGA2-1), E. coli JM 109 (pGGA1-4) and E. coli JM 109 (pGGA2-4) thus obtained have been deposited respectively as FERM BP-6206, FERM BP-6205 and FERM BP-6204 with the National Institute of Bioscience and Human-Technology, Agency of Industrial Science and Technology. Plasmids were removed from these strains by alkali-SDS method. These plasmids were subjected to reaction with a dye primer tuck sequencing kit (Applied Biosystems) and analyzed by electrophoresis with an ABI 373A DNA sequencer (Applied Biosystems) to determine their mutation sites (Table 4).
(§3) From the E. coli JM 109 (pGGA2-1), E. coli JM 109 (pGGA1-4), E. coli JM 109 (pGGA2-4), their crude enzyme solutions were extracted by the method described in Example 1, and these mutant enzymes were purified in the method described in Japanese Patent Laid-Open Publication No. 141592/1989.The purified enzymes were designated GGA1 T219I luciferase, GGA1 V290I luciferase and GGA1 V239I luciferase, respectively. […] The emission of light from 5 seconds to 15 seconds after initiation of the reaction was integrated in Luminometer ML3000 (Dynatech) to determine catalytic efficiency (Vmax/Km). As shown in the table below, it was confirmed that as compared with the GGA1 luciferase, catalytic efficiency was improved by mutating each of the amino acids at the 219-, 290-, and 239-positions.

[8] = tested on: GGA1 luciferase variant GGA1 V239I (239-position Val to Ile); experiment: as above; assay type: biochemical, Luciola cruciata / Photinus pyralis; conditions: ATP 0 to 1.0×10^-3 mM, 50 mM Tricine buffer (pH 7.8), 2.0 mM luciferin, 10 mM MgSO4; light integrated 5 to 15 seconds
Experimental: as §2, §3

[9] = tested on: GGA1 luciferase variant GGA1 V290I (290-position Val to Ile); experiment: as above; assay type: biochemical, Luciola cruciata / Photinus pyralis; conditions: ATP 0 to 1.0×10^-3 mM, 50 mM Tricine buffer (pH 7.8), 2.0 mM luciferin, 10 mM MgSO4; light integrated 5 to 15 seconds
Experimental: as §2, §3

[10] = substrate: Nc1ncnc2c1ncn2[C@@H]1O[C@H](COP(=O)(O)OP(=O)(O)OP(=O)(O)O)[C@@H](O)[C@H]1O; experiment: cells, lysate or membranes named; assay type: biochemical, Luciola lateralis; conditions: other: ATP 0 to 2 mM, 50 mM Tricine buffer (pH 7.8), 0.2 mM luciferin, 10 mM MgSO4
Experimental: as §1

Chain of Photinus pyralis luciferase, wild type (P08659 whole entry): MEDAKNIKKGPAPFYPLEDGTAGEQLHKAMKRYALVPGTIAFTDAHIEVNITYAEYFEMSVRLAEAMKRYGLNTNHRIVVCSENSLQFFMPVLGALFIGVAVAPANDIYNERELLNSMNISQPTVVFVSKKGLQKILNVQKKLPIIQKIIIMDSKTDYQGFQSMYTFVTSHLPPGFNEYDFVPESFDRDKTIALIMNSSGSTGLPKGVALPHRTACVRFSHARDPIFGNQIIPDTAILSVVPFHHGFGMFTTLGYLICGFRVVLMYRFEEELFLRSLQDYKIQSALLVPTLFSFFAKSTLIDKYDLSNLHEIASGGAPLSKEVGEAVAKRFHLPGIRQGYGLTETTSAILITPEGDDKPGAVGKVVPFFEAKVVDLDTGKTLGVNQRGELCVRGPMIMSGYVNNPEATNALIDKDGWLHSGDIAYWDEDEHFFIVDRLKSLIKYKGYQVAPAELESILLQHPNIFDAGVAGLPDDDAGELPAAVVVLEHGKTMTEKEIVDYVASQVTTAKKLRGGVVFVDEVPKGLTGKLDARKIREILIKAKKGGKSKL
Chain of Photinus pyralis luciferase (P08659 whole entry): as above

Molecule | Km [1] [µM] | Km [2] [µM] | Km [3] [µM] | Km [4] [µM] | Km [5] [µM] | Km [6] [µM] | Vmax/Km toward the substrate ATP [7] | Vmax/Km toward the substrate ATP [8] | Vmax/Km toward the substrate ATP [9] | Km [10] [µM]
Nc1ncnc2c1ncn2[C@@H]1O[C@H](COP(=O)(O)OP(=O)(O)OP(=O)(O)O)[C@@H](O)[C@H]1O [ATP] | 152 | 301 | 26.5 | 104 | 161 | 123 | 2.16 × 10^9 RLU/mg | 1.58 × 10^9 RLU/mg | 1.70 × 10^9 RLU/mg | 
Luciola lateralis luciferase (Aquatica lateralis) (protein) MENMENDENIVYGPEPFYPIEEGSAGAQLRKYMDRYAKLGAIAFTNALTGVDYTYAEYLEKSCCLGEALKNYGLVVDGRIALCSENCEEFFIPVLAGLFIGVGVAPTNEIYTLRELVHSLGISKPTIVFSSKKGLDKVITVQKTVTAIKTIVILDSKVDYRGYQSMDNFIKKNTPQGFKGSSFKTVEVNRKEQVALIMNSSGSTGLPKGVQLTHENAVTRFSHARDPIYGNQVSPGTAILTVVPFHHGFGMFTTLGYLTCGFRIVMLTKFDEETFLKTLQDYKCSSVILVPTLFAILNRSELLDKYDLSNLVEIASGGAPLSKEIGEAVARRFNLPGVRQGYGLTETTSAIIITPEGDDKPGASGKVVPLFKAKVIDLDTKKTLGPNRRGEVCVKGPMLMKGYVDNPEATREIIDEEGWLHTGDIGYYDEEKHFFIVDRLKSLIKYKGYQVPPAELESVLLQHPNIFDAGVAGVPDPIAGELPGAVVVLEKGKSMTEKEVMDYVASQVSNAKRLRGGVRFVDEVPKGLTGKIDGKAIREILKKPVAKM |  |  |  |  |  |  |  |  |  | 197
